Values of other authors, collected in patent US20260130964A1, “PHARMACEUTICAL COMPOSITION COMPRISING HIGH PAY LOAD GINGER EXTRACT GRANULES AND PROCESS FOR PREPARATION THEREOF” (INDIA GLYCOLS LIMITED, priority 2022, published 2026).

Conditions: in vivo, po

biological half-life: < 2 hrs
Compound: CCCCC[C@H](O)CC(=O)CCc1ccc(O)c(OC)c1 [Example 6-gingerol, 6-gingerol]
